In PMC4894406, “Results of an abbreviated phase-II study with the Akt Inhibitor MK-2206 in Patients with Advanced Biliary Cancer” (Scientific Reports, 2015):
Values joined by “and” are separate entries in the source; they are usually repeats but may differ in a detail not shown here. Identical values can stand only once.

Legend:
human Akt (Akt-2) = settings: cited from earlier work
P-glycoprotein = settings: cited from earlier work
human Akt (Akt-1) = settings: cited from earlier work
[1] = system: advanced, refractory biliary cancer; assay: Phase II study: efficacy (RECIST 1.1, PFS, OS); assay type: in vivo, human; settings: for Overall Survival / Progression-Free Survival: 200 mg weekly (text b31 gives months)
From the text: This was a National Cancer Institute (NCI)/Cancer Therapy Evaluation Program (CTEP)-sponsored phase II, open label, multicenter trial led by The Ohio State University with the participation of Georgetown University and Case Western University (ClinicalTrials.gov NCT01425879, date of registration 08/27/2011). MK-2206 was provided by NCI/CTEP. The primary objective of this study was to determine the overall response rate (complete response and partial response) as defined by RECIST[17]. Tumor tissue samples were required from all patients prior to enrollment. Secondary objectives included overall survival (OS), progression-free survival (PFS), and the presence of any mutations in the pI3k/AKT pathway and the evaluation of toxicities related to MK-2206. The starting dose and schedule for MK-2206 was 200 mg given weekly in 28-day cycles without interruption. Treatment was administered on an outpatient basis. Two levels of dose reductions were planned (135 mg weekly and 90 mg weekly) with patients taken off the study for additional dose reductions. Radiologic assessment was done by computed tomography every 8 weeks and responses were measured according to RECIST 1.1[17]. Toxicities were defined by the NCI-Common Terminology Criteria of Adverse Events version 4.0.

breast cancer = system: breast cancer; design: method as in PMID 24252402; settings: 48-hr plasma concentration, patients with breast cancer; cited from earlier work
CYP2D6 = system: CYP2D6; design: method as in PMID 24387695; settings: read-out: IC50 CYP2D6 inhibition; cited from earlier work
[2] = design: method as in Fouladi et al. [23]; settings: children with refractory malignancies, 9 subjects, 120 mg/m^2 weekly oral, first dose; ref Fouladi et al. [23]; cited from earlier work
human Akt (Akt-3) = settings: cited from earlier work

**Q.** With NC1(c2ccc(-c3nc4ccn5c(=O)[nH]nc5c4cc3-c3ccccc3)cc2)CCC1 [MK-2206] as the molecule, how does the IC50 (human Akt (Akt-2)) read?
**A.** 12 nM

**Q.** What about the P-glycoprotein substrate (P-glycoprotein) of the same molecule?
**A.** substrate of P-glycoprotein

**Q.** And the IC50 (human Akt (Akt-1))?
**A.** 8 nM

**Q.** What about the “Median PFS” value ([1]; 8 patients, 200 mg weekly) of the same molecule?
**A.** 1.7 months

**Q.** And the “best response for all patients” value ([1]; 8 patients, 200 mg weekly)?
**A.** stable disease

**Q.** And the “median OS” value ([1]; 8 patients, 200 mg weekly)?
**A.** 3.5 months

**Q.** And the objective response ([1]; 8 patients, 200 mg weekly)?
**A.** No patients had an objective response

**Q.** And the “duration of stable disease” value ([1]; observed in two patients)?
**A.** exceeding 12 weeks

**Q.** And the Best response ([1]; subject 1001, Intrahepatic, 200 mg weekly)?
**A.** Progressive disease

**Q.** What about the “Overall Survival” value ([1]; subject 1001, Intrahepatic) of the same molecule?
**A.** 2.2

**Q.** And the “Progression-Free Survival” value ([1]; subject 1001, Intrahepatic)?
**A.** 1.8

**Q.** And the Best response ([1]; subject 1002, Intrahepatic, 200 mg weekly)?
**A.** Progressive disease

**Q.** What about the “Overall Survival” value ([1]; subject 1002, Intrahepatic) of the same molecule?
**A.** 3.1

**Q.** And the “Progression-Free Survival” value ([1]; subject 1002, Intrahepatic)?
**A.** 0.5

**Q.** What about the Best response ([1]; subject 1003, Intrahepatic, 200 mg weekly) of the same molecule?
**A.** Progressive disease

**Q.** And the “Overall Survival” value ([1]; subject 1003, Intrahepatic)?
**A.** 3.8

**Q.** And the “Progression-Free Survival” value ([1]; subject 1003, Intrahepatic)?
**A.** 1.2

**Q.** And the Best response ([1]; subject 1004, Intrahepatic, 200 mg weekly)?
**A.** Progressive disease

**Q.** What about the “Overall Survival” value ([1]; subject 1004, Intrahepatic) of the same molecule?
**A.** 3.1

**Q.** And the “Progression-Free Survival” value ([1]; subject 1004, Intrahepatic)?
**A.** 1.6

**Q.** What about the Best response ([1]; subject 1005, Intrahepatic, 200 mg weekly) of the same molecule?
**A.** Stable disease

**Q.** And the “Overall Survival” value ([1]; subject 1005, Intrahepatic)?
**A.** 20.2

**Q.** What about the “Progression-Free Survival” value ([1]; subject 1005, Intrahepatic) of the same molecule?
**A.** 3.4

**Q.** What about the Best response ([1]; subject 1007, Extrahepatic, 200 mg weekly) of the same molecule?
**A.** Progressive disease

**Q.** What about the “Overall Survival” value ([1]; subject 1007, Extrahepatic) of the same molecule?
**A.** 6.7

**Q.** What about the “Progression-Free Survival” value ([1]; subject 1007, Extrahepatic) of the same molecule?
**A.** 6.6

**Q.** What about the Best response ([1]; subject 2006, Intrahepatic, 200 mg weekly) of the same molecule?
**A.** Progressive disease

**Q.** What about the “Overall Survival” value ([1]; subject 2006, Intrahepatic) of the same molecule?
**A.** 2.8

**Q.** And the “Progression-Free Survival” value ([1]; subject 2006, Intrahepatic)?
**A.** 1.2

**Q.** What about the Best response ([1]; subject 2008, Extrahepatic, 200 mg weekly) of the same molecule?
**A.** Stable disease

**Q.** And the “Overall Survival” value ([1]; subject 2008, Extrahepatic)?
**A.** 6.1

**Q.** And the “Progression-Free Survival” value ([1]; subject 2008, Extrahepatic)?
**A.** 5.6

**Q.** And the “plasma concentration reported to be effective” value (breast cancer)?
**A.** ≥ 22.7 ng/mL

**Q.** What about the IC50 (CYP2D6) of the same molecule?
**A.** > 35 µM

**Q.** What about the “CL/F/m^2 (BSA-adjusted CL/F)” value [2] of the same molecule?
**A.** 18.0 +/− 18.8 L/hr/m^2 and 18.0±18.8 L/hr/m^2

**Q.** What about the Cmax [2] of the same molecule?
**A.** 171 ng/mL

**Q.** What about the Half life [2] of the same molecule?
**A.** 44.2 ± 23.3 h

**Q.** What about the Tmax [2] of the same molecule?
**A.** 5.1 ± 1.6 h

**Q.** And the “Vz/F/m^2” value [2]?
**A.** 1100±1020 L/m^2

**Q.** What about the IC50 (human Akt (Akt-3)) of the same molecule?
**A.** 65 nM
